Reference: ChEMBL document CHEMBL1914316, “Conversion of systemically-distributed triazole-based stearoyl-CoA desaturase (SCD) uHTS hits into liver-targeted SCD inhibitors” (Bioorg Med Chem Lett, 2011)
Each block holds one molecule with its values, some of them ahead of it. Active and inactive are the calls of the source. The calls are words filed in the database; no cut-off is given here.

Tests used:
Acyl-CoA desaturase 1 [1] = molecular target: T1, Acyl-CoA desaturase 1 (Rattus norvegicus, UniProt P07308); experiment: Inhibition of rat SCD by rat microsomal assay
T1 sequence (P07308 whole entry): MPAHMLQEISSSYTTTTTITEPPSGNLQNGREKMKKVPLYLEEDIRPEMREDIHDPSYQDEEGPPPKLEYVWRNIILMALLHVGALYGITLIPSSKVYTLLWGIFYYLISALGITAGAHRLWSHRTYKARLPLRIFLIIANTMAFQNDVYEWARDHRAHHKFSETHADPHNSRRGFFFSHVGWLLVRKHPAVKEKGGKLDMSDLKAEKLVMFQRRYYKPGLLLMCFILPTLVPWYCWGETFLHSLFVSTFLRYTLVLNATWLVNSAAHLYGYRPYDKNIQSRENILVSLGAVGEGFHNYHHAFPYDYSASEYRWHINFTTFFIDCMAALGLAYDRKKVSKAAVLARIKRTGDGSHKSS

[2] = Drug uptake in C57BL/6 mouse harderian glands at 10 mg/kg, po after 6 hrs; type: ADME, organism-based, C57BL6, Harderian gland; design: dose 10 mg/kg, route oral; details: read-out: Drug uptake
[3] = Drug uptake in C57BL/6 mouse liver at 30 mg/kg, po after 3 hrs; type: ADME, organism-based, C57BL6; design: dose 30 mg/kg, route oral; details: read-out: Drug uptake
Acyl-CoA desaturase 1 [4] = molecular target: T1, Acyl-CoA desaturase 1; experiment: Inhibition of SCD in rat hepatocytes assessed as conversion of [14C]-stearic acid to [14C]-oleic acid preincubated for 15 mins measured after 1 hrs by scintillation counting; type: cell-based, Hepatocyte
Mus musculus [5] = experiment: Inhibition of SCD in C57BL/6 mouse liver assessed as conversion of [1-(14)C]-stearic acid to [1-(14)C]-oleic acid at 10 mg/kg, po after 3 hrs; type: functional; details: C57BL/6, Liver
Mus musculus [6] = experiment: Ratio of drug uptake in liver to harderian glands of C57BL/6 mouse at 10 mg/kg, po after 6 hrs; details: in vivo
[7] = Drug uptake in C57BL/6 mouse liver at 10 mg/kg, po after 6 hrs; type: ADME, organism-based, C57BL6; design: dose 10 mg/kg, route oral; details: read-out: Drug uptake
[8] = Drug uptake in C57BL/6 mouse skin at 10 mg/kg, po after 6 hrs; type: ADME, organism-based, C57BL6, Zone of skin; design: dose 10 mg/kg, route oral; details: read-out: Drug uptake
Nucleic Acid = experiment: Ratio of drug uptake in liver to skin of C57BL/6 mouse at 10 mg/kg, po after 6 hrs; type: ADME, organism-based, C57BL6; design: dose 10 mg/kg, route oral; details: in vivo
Stearoyl-CoA desaturase = molecular target: T2, Stearoyl-CoA desaturase (Homo sapiens, UniProt O00767); experiment: Inhibition of SCD in human HepG2 cells assessed as conversion of [1-(14)C]-stearic acid to (14)C-oleic acid; type: cell-based
T2 sequence (O00767 whole entry): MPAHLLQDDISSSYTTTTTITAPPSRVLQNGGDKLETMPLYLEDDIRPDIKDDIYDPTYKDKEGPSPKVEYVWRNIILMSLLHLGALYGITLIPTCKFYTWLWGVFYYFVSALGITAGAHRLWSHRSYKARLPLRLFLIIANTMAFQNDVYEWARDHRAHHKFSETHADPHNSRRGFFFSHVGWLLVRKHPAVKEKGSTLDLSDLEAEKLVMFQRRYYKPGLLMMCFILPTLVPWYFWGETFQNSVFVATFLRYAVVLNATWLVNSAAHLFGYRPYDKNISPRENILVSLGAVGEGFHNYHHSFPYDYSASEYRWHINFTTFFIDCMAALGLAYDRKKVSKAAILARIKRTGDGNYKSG

[9] = Drug uptake in C57BL/6 mouse plasma at 10 mg/kg, po after 6 hrs; type: ADME, organism-based, C57BL6; design: dose 10 mg/kg, route oral; details: read-out: Drug uptake
Mus musculus [10] = experiment: Inhibition of SCD in C57BL/6 mouse liver assessed as conversion of [1-(14)C]-stearic acid to [1-(14)C]-oleic acid at 30 mg/kg, po after 3 hrs; type: functional
[11] = Inhibition of mouse SCD

IC50 (Acyl-CoA desaturase 1 [1]): 552 nM
Compound: O=C(O)CCc1nc(-c2cn(Cc3cc(Br)c(Br)c(Br)c3)nn2)no1

IC50 (Acyl-CoA desaturase 1 [1]): 719 nM
Compound: O=C(O)Cn1nnc(-c2cc(-c3cn(Cc4cc(Cl)c(Cl)c(Cl)c4)nn3)ccn2)n1

Compound: NC(=O)c1cn(Cc2cc(Br)c(Br)c(Br)c2)nn1
concentration at 6 h [2]: 6630 nM | concentration at 3 h [3]: 14000 nM | IC50 (Acyl-CoA desaturase 1 [4]): 10100 nM | IC50 (Acyl-CoA desaturase 1 [1]): 19 nM | inhibition in vivo at 10 mg/kg (Mus musculus [5]): 46% | Ratio (Mus musculus [6]): 0.4 | concentration at 6 h [7]: 2690 nM | concentration at 6 h [8]: 740 nM | Ratio (Nucleic Acid): 3.6 | IC50 (Stearoyl-CoA desaturase): 760 nM | concentration at 6 h [9]: 740 nM

IC50 (Acyl-CoA desaturase 1 [1]): 8320 nM
Compound: O=C(O)CCCCCc1nc(-c2cn(Cc3cc(Br)c(Br)c(Br)c3)nn2)no1

IC50 (Acyl-CoA desaturase 1 [1]): > 20000 nM
Compound: O=C(O)Cn1nnc(-c2cn(Cc3cc(Br)c(Br)c(Br)c3)nn2)n1

IC50 (Acyl-CoA desaturase 1 [1]): 12 nM
Compound: NC(=O)c1nnn(Cc2cc(Cl)c(Cl)c(Cl)c2)c1N

IC50 (Acyl-CoA desaturase 1 [1]): 1310 nM
Compound: O=C(O)Cn1nnc(-c2ccnc(-c3cn(Cc4cc(Cl)c(Cl)c(Cl)c4)nn3)c2)n1

IC50 (Acyl-CoA desaturase 1 [1]): 1250 nM
Compound: O=C(O)Cn1nnc(-c2cnc(-c3cn(Cc4cc(Br)c(Br)c(Br)c4)nn3)cn2)n1

IC50 (Acyl-CoA desaturase 1 [1]): 1810 nM
Compound: O=C(O)Cn1nnc(-c2ccc(-c3cn(Cc4cc(Cl)c(Cl)c(Cl)c4)nn3)nn2)n1

IC50 (Acyl-CoA desaturase 1 [1]): 5250 nM
Compound: O=C(O)CCCCc1nc(-c2cn(Cc3cc(Br)c(Br)c(Br)c3)nn2)no1

IC50 (Acyl-CoA desaturase 1 [1]): 216 nM
Compound: O=C(O)CCCc1nc(-c2cn(Cc3cc(Br)c(Br)c(Br)c3)nn2)no1

IC50 (Acyl-CoA desaturase 1 [1]): 6 nM
Compound: NC(=O)c1nnn(Cc2cc(Br)c(Br)c(Br)c2)c1N

IC50 (Acyl-CoA desaturase 1 [1]): 343 nM
Compound: O=C(O)Cn1nnc(-c2cnc(-c3cn(Cc4cc(Cl)c(Cl)c(Cl)c4)nn3)nc2)n1

IC50 (Acyl-CoA desaturase 1 [1]): 19900 nM
Compound: O=C(O)Cn1nnc(-c2cn(CCc3cc(Br)c(Br)c(Br)c3)nn2)n1

concentration at 3 h [3]: 4100 nM | IC50 (Acyl-CoA desaturase 1 [4]): 975 nM | IC50 (Acyl-CoA desaturase 1 [1]): 49 nM | concentration at 6 h [7]: 330 nM | IC50 (Stearoyl-CoA desaturase): > 100000 nM
Compound: O=C(O)Cn1nnc(-c2cnc(-c3cn(Cc4cc(Cl)c(Cl)c(Cl)c4)nn3)s2)n1
inhibition (Mus musculus [10]): inactive

IC50 (Acyl-CoA desaturase 1 [1]): 911 nM
Compound: O=C(O)Cn1nnc(-c2cn(CCCc3cc(Br)c(Br)c(Br)c3)nn2)n1

concentration at 3 h [3]: 8400 nM | IC50 (Acyl-CoA desaturase 1 [4]): 212 nM | IC50 (Acyl-CoA desaturase 1 [1]): 21 nM | Ratio (Mus musculus [6]): 100 | concentration at 6 h [7]: 1660 nM | IC50 [11]: 10 nM | IC50 (Stearoyl-CoA desaturase): 37700 nM
Compound: O=C(O)Cn1nnc(-c2cc(-c3cn(Cc4cc(Br)c(Br)c(Br)c4)nn3)no2)n1
inhibition in vivo at 30 mg/kg (Mus musculus [10]; C57BL/6, Liver): 30%

concentration at 3 h [3]: 900 nM | IC50 (Acyl-CoA desaturase 1 [4]): 694 nM | IC50 (Acyl-CoA desaturase 1 [1]): 56 nM | concentration at 6 h [7]: 470 nM | IC50 (Stearoyl-CoA desaturase): 6310 nM
Compound: O=C(O)Cn1nnc(-c2cncc(-c3cn(Cc4cc(Br)c(Br)c(Br)c4)nn3)c2)n1
inhibition (Mus musculus [10]): inactive
